# In patent publication US20240041764A1, “Sustained-Release Oral Fosamprenavir Formulation for Treatment of Reflux” (The Medical College of Wisconsin, Inc., priority 2022, published 2024):
# Entries after “also recorded” stand apart in the source; their conditions may differ. Square brackets hold non-standard residues; d marks the D form. Peptide text beside a SMILES is read from it. * marks the point of attachment. Sta = CC(C)C[C@H](N)[C@@H](O)CC(=O)O; Isovaleryl = CC(C)CC(=O)*
# How the values were obtained:
# pepsin [1] = conditions: cited from earlier work
# [2] = in vivo; cited from earlier work
# porcine pepsin A = molecular target: T1, porcine pepsin A (Sus scrofa, UniProt P00791); experiment: competitive binding assay, fluorescence polarization with pepstatin-Alexa647; conditions: 100 nM probe, 0.03 U/ul porcine pepsin A, 37.5% DMSO, 0.1 M HCl pH 1
# T1 construct: purchased Worthington Biochemical Corporation
# T1 sequence (P00791 60-385): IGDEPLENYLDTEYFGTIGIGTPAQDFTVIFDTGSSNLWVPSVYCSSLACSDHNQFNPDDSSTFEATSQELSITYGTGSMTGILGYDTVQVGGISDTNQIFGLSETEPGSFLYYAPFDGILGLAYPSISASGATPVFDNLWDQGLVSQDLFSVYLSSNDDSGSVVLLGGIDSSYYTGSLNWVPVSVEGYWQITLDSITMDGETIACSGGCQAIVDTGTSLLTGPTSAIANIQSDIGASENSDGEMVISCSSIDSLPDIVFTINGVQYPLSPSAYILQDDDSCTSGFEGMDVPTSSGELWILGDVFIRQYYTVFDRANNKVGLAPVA
# Experimental: To examine whether HIV protease inhibitors bound and inhibited pepsin, we developed assays based on fluorescence polarization which measures size-dependent molecular rotation thereby permitting detection of degradation, association and dissociation events^80. A competitive binding assay was designed employing pepstatin, an inhibitor of sub-nanomolar affinity^81. Pepstatin-Alexa647 was synthesized by dissolving 1 mg pepstatin A (Sigma-Aldrich) in a 50:50 mixture of dimethylformamide (DMF) and dimethylsulfoxide (DMS) followed by the addition of N,N,N′,N′-Tetramethyl-O—(N-succinimidyl)uronium tetrafluoroborate (0.6 mg) and trimethylamine (10 μL) DMF. The mixture was stirred for 1 hour, after which 1 mg Alexa Fluor 647 Cadaverine, Disodium Salt (ThermoFisher Scientific) was added. After 2 hours, the solvents were evaporated under high vacuum (35° C.) and residue partially dissolved in 10% methanol and transferred onto a C18 cartridge (Waters Corporation, Milford, MA). Increasing percentages of methanol were used for the elution. Pepstatin-Alexa647 eluted at 45% methanol. An enzymatic inhibition assay was designed using casein substrate.^82 Bovine alpha casein (Sigma-Aldrich, St. Louis, MO) was labeled with Alexa Fluor 647 Carboxylic Acid, Succinimidyl Ester (ThermoFisher Scientific, Waltham, MA) as described.^82 Briefly, the two were combined at 2.5 ug/mg label to protein ratio in 0.1M sodium bicarbonate for 15 minutes and labeled casein was separated from unbound label in a Sephadex G-25 (Sigma-Aldrich) column comprised of 90×5 mm packed beads in a glass Pasteur pipette, eluted with dPBS pH7.4 (ThermoFisher Scientific). The fast-moving band (casein-bound fluorophore) was collected in ˜0.4 ml volume. […]
# (§1) Assays were optimized using ranges of 0.3-1000 μM unlabeled pepstatin, 100-500 nM pepstatin-Alexa647 or casein-Alexa647 probe, 0.003-3 U/μl porcine pepsin (Worthington Biochemical Corporation, Lakewood, NJ), and 5-37.5% DMSO (HIV protease inhibitor diluent) in 0.1 M HCl, pH 1 with 0.01% v/v Tween-20 in 20 μl volumes in 384-well black optical plates (Nunc, Roskilde, DK) and read on a BioTek Cytation 5 (BioTek Instruments, Winooski, VT) with far red FP filter cube (excitation/emission 620/680 nm). […] Assays were performed twice with triplicate reactions read for five minutes and mean mP plotted against probe concentration (binding assay) or read at <2 minutes intervals over 30 minutes with mean mP of plotted over time (activity assay). Half maximal inhibitory concentration (IC50) of inhibitors were calculated from kinetic traces analyzed using an online tool (https://icekat.herokuapp.com/icekat)^83. mP was normalized to blank (absent inhibitor) to derive percent bound or activity.
# porcine pepsin = molecular target: T2, porcine pepsin (Sus scrofa, UniProt P00791); experiment: peptic activity assay, fluorescence polarization with casein-Alexa647; assay type: biochemical; conditions: for inhibited pepsin (peptic activity): 200 nM probe, 0.01 U/μL pepsin, 5% DMSO, 0.1 M HCl pH 1
# T2 construct: purchased Worthington Biochemical Corporation
# T2 sequence (P00791 60-385): as above
# Experimental: To examine whether HIV protease inhibitors bound and inhibited pepsin, we developed assays based on fluorescence polarization which measures size-dependent molecular rotation thereby permitting detection of degradation, association and dissociation events^80. A competitive binding assay was designed employing pepstatin, an inhibitor of sub-nanomolar affinity^81. Pepstatin-Alexa647 was synthesized by dissolving 1 mg pepstatin A (Sigma-Aldrich) in a 50:50 mixture of dimethylformamide (DMF) and dimethylsulfoxide (DMS) followed by the addition of N,N,N′,N′-Tetramethyl-O—(N-succinimidyl)uronium tetrafluoroborate (0.6 mg) and trimethylamine (10 μL) DMF. The mixture was stirred for 1 hour, after which 1 mg Alexa Fluor 647 Cadaverine, Disodium Salt (ThermoFisher Scientific) was added. After 2 hours, the solvents were evaporated under high vacuum (35° C.) and residue partially dissolved in 10% methanol and transferred onto a C18 cartridge (Waters Corporation, Milford, MA). Increasing percentages of methanol were used for the elution. […] An enzymatic inhibition assay was designed using casein substrate.^82 Bovine alpha casein (Sigma-Aldrich, St. Louis, MO) was labeled with Alexa Fluor 647 Carboxylic Acid, Succinimidyl Ester (ThermoFisher Scientific, Waltham, MA) as described.^82 Briefly, the two were combined at 2.5 ug/mg label to protein ratio in 0.1M sodium bicarbonate for 15 minutes and labeled casein was separated from unbound label in a Sephadex G-25 (Sigma-Aldrich) column comprised of 90×5 mm packed beads in a glass Pasteur pipette, eluted with dPBS pH7.4 (ThermoFisher Scientific). The fast-moving band (casein-bound fluorophore) was collected in ˜0.4 ml volume. Concentration of resultant probe (casein-Alexa647 in PBS-azide) was estimated via spectrophotometry using Beer's law (Implen Nanophotometer, Implen, Inc. Westlake Village, CA).
# as §1, with “nm). Unlabeled pepstatin dose-response curves were used to ensure that the assays were responsive to pepsin inhibition.” for “nm).”
# pepsin [3] = conditions: cited from earlier work; remark: listed apart in the source
# [4] = cited from earlier work
# [5] = test system: patients with HEMII-pH testing-confirmed alkaline LPR; conditions: thrice daily post meal with anti-reflux diet; n=48; cited from earlier work
bound pepsin (competitive binding) (porcine pepsin A),inhibited pepsin (peptic activity) (porcine pepsin),Compound,effect on pepsin-mediated damage and inflammation (pepsin [1]),side effects [2],other results
–,–,anthocyanin,abrogate this damage and inflammation,–,–
low micromolar,low micromolar,"CC(C)CN(C[C@@H](O)[C@H](Cc1ccccc1)NC(=O)O[C@H]1CCOC1)S(=O)(=O)c1ccc(N)cc1 [amprenavir, [(3S)-oxolan-3-yl] N-[(2S,3R)-4-[(4-aminophenyl)sulfonyl-(2-methylpropyl)amino]-3-hydroxy-1-phenylbutan-2-yl]carbamate]",–,"minimal side effects (diarrhea, nausea and vomiting)","IC50 for pepsin (porcine pepsin; in vitro binding and inhibition assays, IC50 from kinetic traces): low micromolar range"
low micromolar,low micromolar,"CC(C)c1nc(CN(C)C(=O)N[C@H](C(=O)N[C@@H](Cc2ccccc2)C[C@H](O)[C@H](Cc2ccccc2)NC(=O)OCc2cncs2)C(C)C)cs1 [ritonavir, 1,3-thiazol-5-ylmethyl N-[(2S,3S,5S)-3-hydroxy-5-[[(2S)-3-methyl-2-[[methyl-[(2-propan-2-yl-1,3-thiazol-4-yl)methyl]carbamoyl]amino]butanoyl]amino]-1,6-diphenylhexan-2-yl]carbamate]",–,"minimal side effects (diarrhea, nausea and vomiting)",–
–,–,CC(C)CC(=O)N[C@H](C(=O)N[C@H](C(=O)N[C@@H](CC(C)C)[C@@H](O)CC(=O)N[C@@H](C)C(=O)N[C@@H](CC(C)C)[C@@H](O)CC(=O)O)C(C)C)C(C)C [pepstatin] (Isovaleryl-VV[Sta]A[Sta]-OH),abrogate this damage and inflammation,–,affinity / potency as pepsin inhibitor (pepsin [3]): potent pepsin inhibitor; also recorded: sub-nanomolar; water solubility [4]: poor water-solubility; also recorded: poor water-soluble characteristics
–,–,O.O=S(=O)([O-])[O-].O=S(=O)([O-])[O-].[Al+3].[Al+3].[Al+3].[Al+3].[Al+3].[Mg+2].[Mg+2].[Mg+2].[Mg+2].[Mg+2].[Mg+2].[Mg+2].[Mg+2].[Mg+2].[Mg+2].[OH-].[OH-].[OH-].[OH-].[OH-].[OH-].[OH-].[OH-].[OH-].[OH-].[OH-].[OH-].[OH-].[OH-].[OH-].[OH-].[OH-].[OH-].[OH-].[OH-].[OH-].[OH-].[OH-].[OH-].[OH-].[OH-].[OH-].[OH-].[OH-].[OH-].[OH-] [magaldrate],–,–,"voice quality (GRBAS dysphonia and roughness, jitter, shimmer, noise to harmonic ratio) [5]: improved voice quality"
–,–,CC(C)c1cc2c(cc1S(=O)(=O)O)[C@@]1(C)CCC[C@@](C)(C(=O)O)[C@@H]1CC2 [ecabet sodium],abrogate this damage and inflammation,–,–
